Assay [1] deals with obestatin receptors, crude plasma membrane preparation of rat jejunum. Briefly: I^125-obestatin binding to crude plasma membrane preparation of rat jejunum. The conditions noted are these: for inhibition of I^125-obestatin binding: jejunum preparation; for competition of I^125-obestatin binding: rat jejunum preparation. The procedure: Mixture of the peptide (20 μg) and 1 mCi [^125I] NaI was transferred to precoated Iodogen vials and incubated for 4 min. The ^125I-labeled peptide was applied to a Sep-Pak C18 cartridge (Waters, Milford, Mass.) before elution with 60% acetonitrile/0.1% TFA. For radioligand binding assays, rat jejunum or other tissues were washed with buffer A (20 mM Hepes, 5 mM EDTA, 1 mM dithiothreitol (DTT), 10 μM amidinophenylmethanesulfonyl fluoride, 5 mg/L leupeptin, 100 mM KCl, pH 7.5), cut into small pieces and homogenized using a Physcotron motorized homogenizer. The homogenates were centrifuged at 1,000 g for 5 min. and the supernatant was centrifuged at 300,000 g for 1 h at 2° C. The pellets (crude membrane fractions) were resuspended with buffer A without KCl, quickly frozen under liquid nitrogen, and stored at −80° C. until use. […] After incubation, the tubes were centrifuged for 10 min. at 10,000 g, and the pellet was washed twice in ice-cold PBS before counting using a γ-spectrophotometer. Specific binding was calculated by subtracting nonspecific binding from total binding.

Assay [2] has as its target T1, GPR39 (Homo sapiens, UniProt O43194).
T1 construct: expressed in transfected cells; host or cells: CHO cells
T1 sequence (O43194 1-453): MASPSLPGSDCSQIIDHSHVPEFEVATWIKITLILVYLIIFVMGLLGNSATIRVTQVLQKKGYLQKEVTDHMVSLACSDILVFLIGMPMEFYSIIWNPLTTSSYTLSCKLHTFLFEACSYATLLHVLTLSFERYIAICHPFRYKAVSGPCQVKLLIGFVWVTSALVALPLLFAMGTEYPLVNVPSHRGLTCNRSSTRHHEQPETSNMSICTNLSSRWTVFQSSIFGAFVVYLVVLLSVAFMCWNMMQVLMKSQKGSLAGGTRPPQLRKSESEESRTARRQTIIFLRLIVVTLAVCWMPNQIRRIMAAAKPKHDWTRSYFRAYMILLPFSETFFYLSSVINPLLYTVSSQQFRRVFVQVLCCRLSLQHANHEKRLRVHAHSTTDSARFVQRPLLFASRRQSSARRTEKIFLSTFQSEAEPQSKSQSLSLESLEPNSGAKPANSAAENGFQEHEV
Briefly: cAMP production in CHO cells overexpressing GPR39. In kind it is cell-based.

Assay [3] has as its target T1, GPR39. Put plainly: I^125-obestatin binding to CHO cells overexpressing GPR39.
The nature of assay [4]: Food intake in food-deprived mice after intraperitoneal peptide treatment. The conditions noted are these: adult male mice, deprived of food 16 h, measured at 1, 3 and 5 h. The assay is classed as in vivo. Here is the method: (§1) Analysis of gastrointestinal functions. Eight-week-old C57BL6 male mice were housed individually in a regulated environment. Before intraperitoneal treatment with different peptides, mice were deprived of food for 16 h with free access to water. Food intake was measured by placing preweighed pellets in the cage and weighing uneaten pellets at 1, 3 and 5 h after treatment. To estimate gastric emptying responses, mice deprived of food for 16 h were given food pellets for 90 min. before injection of different hormones or saline. After treatment, mice were deprived of food again and killed 2 h later. The stomach was excised at the pylorus and cardia before weighing. Gastric emptying was calculated by subtracting the stomach weight of treated mice from those killed at the time of the hormone injection.

Assay [5] in a line: Gastric emptying in mice. The assay is classed as in vivo. The conditions noted are these: adult male mice, intraperitoneal, killed 2 h after treatment. Here is the method:
as §1

Assay [6] in a line: Body weight gain in adult male rats. The assay is classed as in vivo. The conditions noted are these: for body weight: 1 μmol/kg body weight, thrice daily.
For assay [7], the system named is cultured rat pituitary cells. Put plainly: GH secretion from cultured rat pituitary cells.
Description: Pituitary cell cultures. Anterior pituitaries were removed from adult male Sprague-Dawley rats and dispersed with 0.3% collagenase, 0.1% hyaluronidase and DNase I (10 μg/ml). The cell suspension was centrifuged at 300 g for 5 min. and the cells were washed twice before incubated in DMEM containing 0.1% bovine serum albumin (BSA), penicillin (100 units/ml), streptomycin (100 μg/ml), fungizone (2.5 μg/ml) and 10% fetal calf serum. Cells were seeded onto poly-lysine-coated 24-well plates at a density of 2˜3×10^5 cells/well. Cultures were kept in a humidified atmosphere of 5% CO2 and 95% air at 37° C. […] Media was removed and rat GH was measured by an ELISA.
Assay [8] concerns jejunum muscle strips. Put plainly: Isometric force measurement of jejunum muscle strips. The procedure:
Isometric force measurements. Jejunum muscle strips (˜1 cm in length) were cut along the longitudinal axis of the circular muscle layer, and the mucosa was removed to minimize endogenous peptides. Muscle strips were mounted to a TIS8105R (Kent Scientific Corporation, Torrington, Conn.) isometric strain gauge and immersed in a 5 ml organ bath maintained at 37° C. with oxygenated KRB [Krebs-Ringer phosphate buffer, consisting of 50 mM HEPES, 100 mM NaCl, 5 mM KCl, and 1 mM each of MgCl2, NaH2PO4, and CaCl2] as described earlier (Porcher et al. (2005) Am J Physiol Gastrointest Liver Physiol 288(5): G1091-103.). A resting force of 1.0 g was applied to intestinal muscles and a 1.5 h equilibration period was allowed before testing of different peptides during a 5 min. period by incubating muscles with peptides at desired concentrations. After each test, muscle strips were washed with fresh KRB for 20 min. to allow full recovery of basal contractile activities. Maximal contraction was evaluated at the beginning and end of each experiment following treatment with 10 μM of acetylcholine chloride. Contractility data were digitized and stored in a computer using the Acknowledge software (MP 100, Biopac Systems, Inc., Goleta, Calif.). Magnitude of contractile strength is expressed as % of maximal contraction induced by acetylcholine.

Assay [9] has as its target T2, GHSR (Homo sapiens, UniProt Q92847).
T2 construct: expressed in transfected cells; host or cells: CHO cells
Briefly: cAMP production in CHO cells expressing GHSR, with or without chimeric Gsq protein. In kind it is cell-based. The conditions noted are these: without Gsq.

Assay [10] has as its target T1, GPR39. Put plainly: SRE promoter-luciferase reporter in cells cotransfected with GPR39. The assay is classed as cell-based. The conditions noted are these: cotransfection of GPR39 and SRE promoter-luciferase construct.
The target in assay [11] is T3, V50-GPR39 (Homo sapiens, UniProt O43194, A50V).
T3 sequence (O43194 1-453 A50V): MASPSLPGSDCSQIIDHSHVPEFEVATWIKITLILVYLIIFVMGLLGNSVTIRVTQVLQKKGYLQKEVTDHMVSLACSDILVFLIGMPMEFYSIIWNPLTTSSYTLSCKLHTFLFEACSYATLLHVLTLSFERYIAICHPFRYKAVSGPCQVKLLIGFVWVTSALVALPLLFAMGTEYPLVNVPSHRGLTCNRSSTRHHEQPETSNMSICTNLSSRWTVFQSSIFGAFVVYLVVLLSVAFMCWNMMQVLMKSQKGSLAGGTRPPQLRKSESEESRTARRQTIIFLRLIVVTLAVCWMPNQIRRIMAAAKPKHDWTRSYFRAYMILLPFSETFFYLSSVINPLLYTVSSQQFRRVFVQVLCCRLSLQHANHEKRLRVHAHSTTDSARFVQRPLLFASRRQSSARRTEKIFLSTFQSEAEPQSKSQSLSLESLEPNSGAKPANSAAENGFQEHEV
The conditions noted are these: ratio of affinities to obestatin.

Assay [12] deals with T4, GPR39 (wild type A50-GPR39) (human, UniProt O43194 1-453).
T4 construct: also called obestatin receptor; orphan receptor GPR39
T4 sequence: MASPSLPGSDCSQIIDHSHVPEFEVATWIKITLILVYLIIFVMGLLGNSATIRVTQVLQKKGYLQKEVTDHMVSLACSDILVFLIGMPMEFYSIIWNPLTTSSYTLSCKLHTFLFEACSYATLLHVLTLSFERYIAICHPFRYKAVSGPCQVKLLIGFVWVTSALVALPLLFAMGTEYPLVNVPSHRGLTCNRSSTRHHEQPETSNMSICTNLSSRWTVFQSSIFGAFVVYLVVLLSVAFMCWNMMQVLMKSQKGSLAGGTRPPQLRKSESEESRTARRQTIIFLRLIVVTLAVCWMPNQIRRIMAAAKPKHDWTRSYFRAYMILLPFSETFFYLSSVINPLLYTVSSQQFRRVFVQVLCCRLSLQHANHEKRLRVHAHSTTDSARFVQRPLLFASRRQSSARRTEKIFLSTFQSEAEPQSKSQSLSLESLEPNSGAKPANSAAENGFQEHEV
Put plainly: displacement of I^125-obestatin from GPR39.

Like-named read-outs stand apart in the source and are kept apart here. No end group written: not given here.

T2 sequence (Q92847 whole entry, species assumed): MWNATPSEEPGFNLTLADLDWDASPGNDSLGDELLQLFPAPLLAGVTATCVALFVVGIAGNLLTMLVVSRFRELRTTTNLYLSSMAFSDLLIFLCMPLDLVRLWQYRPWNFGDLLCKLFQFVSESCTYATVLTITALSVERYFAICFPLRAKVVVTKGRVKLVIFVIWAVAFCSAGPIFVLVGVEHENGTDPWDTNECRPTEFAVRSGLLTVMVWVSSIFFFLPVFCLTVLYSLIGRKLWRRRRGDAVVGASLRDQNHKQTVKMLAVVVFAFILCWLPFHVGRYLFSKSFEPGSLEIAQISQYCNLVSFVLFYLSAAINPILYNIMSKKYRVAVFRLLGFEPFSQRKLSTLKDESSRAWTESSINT

With `Nc1nc2c(ncn2[C@@H]2O[C@H](COP(=O)(O)OP(=O)(O)OP(O)(O)=S)[C@@H](O)[C@H]2O)c(=O)[nH]1` [GTPγS], the “inhibition of I^125-obestatin binding” value was 5% in [1] (GTPγS 1 uM), 20% in [1] (GTPγS 10 uM) and 45% in assay [1] (GTPγS 100 uM).
Turning to `CC[C@H](C)[C@H](NC(=O)[C@@H]1CCCN1C(=O)[C@@H](NC(=O)[C@@H](N)Cc1ccccc1)C(C)C)C(=O)N[C@@H](Cc1ccccc1)C(=O)N[C@H](C(=O)N[C@@H](Cc1ccc(O)cc1)C(=O)NCC(=O)N[C@@H](CCC(=O)O)C(=O)N[C@@H](CC(C)C)C(=O)N[C@@H](CCC(N)=O)C(=O)N[C@@H](CCCNC(=N)N)C(=O)N[C@@H](CCSC)C(=O)N[C@@H](CCC(N)=O)C(=O)N[C@@H](CCC(=O)O)C(=O)N[C@@H](CCCCN)C(=O)N[C@@H](CCC(=O)O)C(=O)N[C@@H](CCCNC(=N)N)C(=O)N[C@@H](CC(N)=O)C(=O)N[C@@H](CCCCN)C(=O)NCC(=O)N[C@@H](CCC(N)=O)C(=O)O)[C@@H](C)O` [motilin], in [1], the “competition of I^125-obestatin binding” value is given as “not competed”. Besides, the cAMP production result in [2] was “ineffective”.
Turning to “(des1-10)obestatin: truncated obestatin lacking residues 1-10 (LSGVQYQQHSQAL)”, the “competition of I^125-obestatin binding” value in [1] is “less effective than obestatin”. For the same molecule, in assay [3], the “competition of obestatin binding to GPR39” value is given as “less effective”.
As to “NA-obestatin: non-amidated obestatin, synthesized by GL Biochem”, the food intake result in assay [4] was “minimally effective”. In assay [5], the gastric emptying activity entry is “less effective”. For the same molecule, in assay [1], the “competition of I^125-obestatin binding” value is given as “less effective than obestatin”.
Turning to “ghrelin: n-octanoylated 28 amino acid peptide, endogenous GHSR ligand; purchased from Phoenix Pharmaceuticals (GSSFLSPEHQRVQQRKESKKPPAKLQPR; not fully specified (residue 3); UniProt Q9UBU3 24-51, looked up) [reference compound]”, the food intake entry in assay [4] is on record as “minimally effective”. Also, in assay [5], the gastric emptying activity result was “ineffective”. For the same molecule, in assay [6], the body weight entry is “increased body weight”. In addition, in [1], the “competition of I^125-obestatin binding” value is “not competed”. Besides, in [2], the cAMP production result was “ineffective”. For the same molecule, the GH secretion in assay [7] was 2.32+/−0.08 ng/culture.
Take “neuromedin U: peptide purchased from Phoenix Pharmaceuticals (FRVDEEFQSPFASQSRGYFLFRPRN; ends and bridges not checked; UniProt P48645 142-166, looked up)”: the “competition of I^125-obestatin binding” value in [1] is reported as “not competed”.
For the molecule “synthesized amidated human obestatin, 23 residue peptide derived from proghrelin; FNAPFDVGIKLSGVQYQQHSQAL-NH2 (SEQ ID NO:4); also used iodinated as radioligand”, in assay [4], the food intake entry is reported as “suppressed food intake for five hours in a dose-dependent manner”. Moreover, the gastric emptying activity result in assay [5] was “sustained suppression of gastric emptying activity”. For the same molecule, the body weight entry in [6] is listed as “suppressed body weight gain”. For the same molecule, the “body weight, cotreatment with ghrelin” value in [6] (cotreatment of obestatin with ghrelin) is listed as “antagonized the orexigenic action of ghrelin”. The “contractile activity of jejunum muscle strips in presence of ghrelin” value in [8] (effect on stimulatory effect of ghrelin) is listed as “antagonized the known stimulatory effect of ghrelin”. Further, in assay [8] (isometric force measurement), the “contractile activity of jejunum muscle strips” value was “decreased contractile activity”. Moreover, binding in [1] (labeled obestatin, rat jejunum crude plasma membrane) was put at a Kd of 4 nM. The “competition of obestatin binding to GPR39” value in assay [3] was “competed”. The cAMP production entry in assay [2] was “dose-dependent increases in cAMP production”. The cAMP response result in assay [9] was “did not respond”. In addition, the SRE promoter-luciferase signaling entry in [10] was “conferred obestatin”. Also, the “affinity of V50-GPR39 relative to wild type A50-GPR39” value in assay [11] is given as “two-fold higher affinity”. Moreover, the GH secretion in assay [7] (100 nM, cultured rat pituitary cells, 1 h, control 1.04+/−0.03) was 1.04+/−0.03 ng/culture.
“urocortin: peptide injected in mice as positive control for food intake suppression (DNPSLSIDLTFHLLRTLLELARTQSQRERAEQNRIIFDSV; ends and bridges not checked; UniProt P55089 83-122, looked up) [reference compound]”: in assay [4], the food intake entry is “suppressed food intake”.

B1: (des1-10)obestatin (peptide)
peptide: LSGVQYQQHSQAL
modifications: ends and bridges not checked
notes: Synthetic obestatin lacking residues 1-10; The range 11-23 is derived from the name; also called truncated (des1-10)obestatin
As to B1, in [12], the binding result is “binds”.

The record behind these values is patent US20070042409A1 (priority 2005, published 2007).
